In ChEMBL document CHEMBL3627665, “Challenges and Opportunities in the Discovery of New Therapeutics Targeting the Kynurenine Pathway” (J Med Chem, 2015):
One block for each molecule: values may come before it.

Columns and labels:
[1] = target: Indoleamine 2,3-dioxygenase 1 (Mus musculus, UniProt P28776); assay: Inhibition of mouse IDO1
[2] = target: Tryptophan 2,3-dioxygenase (Mus musculus, UniProt P48776); assay: Inhibition of mouse TDO
[3] = target: Tryptophan 2,3-dioxygenase (Homo sapiens, UniProt P48775); assay: Inhibition of TDO (unknown origin)
Sequence of Tryptophan 2,3-dioxygenase (Homo sapiens, UniProt P48775) (P48775 whole entry): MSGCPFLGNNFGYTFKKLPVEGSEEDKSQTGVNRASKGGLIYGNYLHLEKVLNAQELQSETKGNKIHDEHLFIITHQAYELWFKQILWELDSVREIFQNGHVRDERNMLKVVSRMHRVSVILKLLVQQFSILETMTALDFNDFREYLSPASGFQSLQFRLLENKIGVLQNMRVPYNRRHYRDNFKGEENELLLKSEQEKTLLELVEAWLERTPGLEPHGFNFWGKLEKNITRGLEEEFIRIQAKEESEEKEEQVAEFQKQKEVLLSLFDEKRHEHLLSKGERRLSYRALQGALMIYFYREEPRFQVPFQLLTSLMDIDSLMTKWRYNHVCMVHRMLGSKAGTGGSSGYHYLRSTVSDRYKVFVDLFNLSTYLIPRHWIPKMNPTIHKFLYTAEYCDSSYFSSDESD

[4] = target: T1, Indoleamine 2,3-dioxygenase 2 (Homo sapiens, UniProt Q6ZQW0); assay: Inhibition of human IDO2
T1 sequence (Q6ZQW0 whole entry): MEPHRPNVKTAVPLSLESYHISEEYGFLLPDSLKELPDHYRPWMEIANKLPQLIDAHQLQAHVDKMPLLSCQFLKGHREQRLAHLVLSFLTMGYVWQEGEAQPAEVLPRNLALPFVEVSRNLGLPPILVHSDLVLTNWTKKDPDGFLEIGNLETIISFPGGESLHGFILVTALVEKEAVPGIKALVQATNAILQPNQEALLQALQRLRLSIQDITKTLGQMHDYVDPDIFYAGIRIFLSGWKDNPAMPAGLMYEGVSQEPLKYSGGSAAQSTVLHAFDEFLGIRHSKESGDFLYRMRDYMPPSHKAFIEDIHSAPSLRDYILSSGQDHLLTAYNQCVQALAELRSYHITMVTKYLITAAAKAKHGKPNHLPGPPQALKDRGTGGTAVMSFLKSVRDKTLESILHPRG

[5] = target: Kynurenine 3-monooxygenase (Homo sapiens, UniProt O15229); assay: Inhibition of human KMO
Sequence of Kynurenine 3-monooxygenase (Homo sapiens, UniProt O15229) (O15229 whole entry): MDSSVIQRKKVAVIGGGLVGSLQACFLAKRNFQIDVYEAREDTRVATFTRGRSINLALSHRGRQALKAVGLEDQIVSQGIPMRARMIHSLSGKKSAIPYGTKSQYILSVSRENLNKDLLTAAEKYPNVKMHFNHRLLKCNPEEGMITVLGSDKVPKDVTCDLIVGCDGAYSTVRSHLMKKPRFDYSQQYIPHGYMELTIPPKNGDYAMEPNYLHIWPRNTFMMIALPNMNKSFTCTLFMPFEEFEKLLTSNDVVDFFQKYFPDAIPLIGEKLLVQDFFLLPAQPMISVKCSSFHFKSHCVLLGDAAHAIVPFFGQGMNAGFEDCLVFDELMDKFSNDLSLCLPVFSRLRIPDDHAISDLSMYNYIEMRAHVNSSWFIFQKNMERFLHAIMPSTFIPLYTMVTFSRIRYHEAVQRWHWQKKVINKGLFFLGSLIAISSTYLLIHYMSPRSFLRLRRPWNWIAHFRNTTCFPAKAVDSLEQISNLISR

[6] = target: T2, Kynurenine 3-monooxygenase (Saccharomyces cerevisiae (strain ATCC 204508 / S288c) (Baker's yeast), UniProt P38169); assay: Inhibition of yeast KMO
T2 sequence (P38169 whole entry): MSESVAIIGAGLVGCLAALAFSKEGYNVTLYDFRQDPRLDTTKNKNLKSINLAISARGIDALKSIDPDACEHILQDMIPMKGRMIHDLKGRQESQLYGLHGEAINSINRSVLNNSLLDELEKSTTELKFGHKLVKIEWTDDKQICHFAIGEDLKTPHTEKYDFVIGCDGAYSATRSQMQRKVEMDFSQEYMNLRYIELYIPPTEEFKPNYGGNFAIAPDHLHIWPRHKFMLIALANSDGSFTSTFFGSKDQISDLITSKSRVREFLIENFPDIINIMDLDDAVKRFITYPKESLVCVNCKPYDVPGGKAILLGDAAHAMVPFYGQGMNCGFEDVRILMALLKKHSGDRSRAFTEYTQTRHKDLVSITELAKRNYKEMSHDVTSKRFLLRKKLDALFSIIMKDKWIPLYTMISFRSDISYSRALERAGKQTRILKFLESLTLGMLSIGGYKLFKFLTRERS

[7] = target: Kynurenine/alpha-aminoadipate aminotransferase, mitochondrial (Rattus norvegicus, UniProt Q64602); assay: Inhibition of rat KAT-2
Sequence of Kynurenine/alpha-aminoadipate aminotransferase, mitochondrial (Q64602 whole entry): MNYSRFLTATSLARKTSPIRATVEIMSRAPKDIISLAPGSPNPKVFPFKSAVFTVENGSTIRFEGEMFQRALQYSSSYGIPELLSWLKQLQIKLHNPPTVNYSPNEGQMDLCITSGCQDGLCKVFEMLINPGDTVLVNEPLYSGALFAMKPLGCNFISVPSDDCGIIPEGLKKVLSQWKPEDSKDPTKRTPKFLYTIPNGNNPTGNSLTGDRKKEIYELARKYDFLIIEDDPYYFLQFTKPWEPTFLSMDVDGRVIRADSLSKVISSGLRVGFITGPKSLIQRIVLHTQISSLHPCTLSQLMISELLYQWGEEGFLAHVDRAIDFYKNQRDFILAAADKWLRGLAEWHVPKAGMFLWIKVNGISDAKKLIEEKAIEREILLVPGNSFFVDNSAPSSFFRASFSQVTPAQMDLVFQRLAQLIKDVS

Sequence of Indoleamine 2,3-dioxygenase 1 (P28776 whole entry): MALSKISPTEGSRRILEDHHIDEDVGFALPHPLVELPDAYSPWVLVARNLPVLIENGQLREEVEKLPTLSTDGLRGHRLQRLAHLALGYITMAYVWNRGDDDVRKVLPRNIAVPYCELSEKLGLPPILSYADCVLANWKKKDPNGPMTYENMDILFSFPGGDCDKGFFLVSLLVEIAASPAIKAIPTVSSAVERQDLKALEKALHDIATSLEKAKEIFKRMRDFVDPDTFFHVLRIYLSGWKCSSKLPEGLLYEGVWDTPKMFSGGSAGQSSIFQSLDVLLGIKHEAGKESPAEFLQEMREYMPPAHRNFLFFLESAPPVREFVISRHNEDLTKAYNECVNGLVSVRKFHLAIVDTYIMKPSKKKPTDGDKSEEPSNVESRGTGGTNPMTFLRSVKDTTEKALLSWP
Sequence of Tryptophan 2,3-dioxygenase (Mus musculus, UniProt P48776) (P48776 whole entry): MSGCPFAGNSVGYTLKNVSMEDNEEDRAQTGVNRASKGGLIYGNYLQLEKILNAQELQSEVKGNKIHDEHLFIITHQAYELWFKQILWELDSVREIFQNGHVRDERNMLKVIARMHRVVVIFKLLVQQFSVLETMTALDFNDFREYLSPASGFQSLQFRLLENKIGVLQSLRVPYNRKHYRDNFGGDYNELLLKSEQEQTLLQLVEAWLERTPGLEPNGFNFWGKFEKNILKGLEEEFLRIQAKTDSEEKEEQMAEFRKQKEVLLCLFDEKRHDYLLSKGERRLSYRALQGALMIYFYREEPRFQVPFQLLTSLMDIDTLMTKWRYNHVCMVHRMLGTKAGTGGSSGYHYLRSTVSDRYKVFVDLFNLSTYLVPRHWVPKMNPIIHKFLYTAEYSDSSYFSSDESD

IC50 [1]: > 400 µM
IC50 [2]: 1.96 µM
Compound: Fc1ccc2c(/C=C/c3nnn[nH]3)c[nH]c2c1

IC50 [3]: > 62.5 µM
IC50 [4]: > 250 µM
Compound: Cc1ccc(-c2csc3nnc(SCC(=O)Nc4ccc5c(c4)OCO5)n23)cc1

IC50 [1]: > 80 µM
IC50 [2]: 1.46 µM
Compound: Fc1ccc2c(/C=C/c3cccnc3)c[nH]c2c1

IC50 [3]: < 1 µM
Compound: O=C(CC1c2ccccc2-c2cncn21)C1CCCCC1 (stereo unspecified)

IC50 [5]: 0.02 µM
IC50 [6]: 0.074 µM
Compound: O=C(O)C1CC1C(=O)c1ccc(Cl)c(Cl)c1 (stereo unspecified)

IC50 [7]: 71 µM
Compound: CCS(=O)(=O)c1ccc(C(=O)C[C@H](N)C(=O)O)cc1

IC50 [7]: 13.4 µM
Compound: O=C1NC(=O)/C(=C/c2cccc(-c3ccc4c5c3CCC(=O)N5CC4)c2)S1
